The source of these data is PMC11998406 (BMC Chemistry, 2025).

In data set [1] the test system is SH-SY5Y neuroblastoma cell line. As to the kind of experiment: Cell viability. In kind it is cell-based. Conditions: up to 25 µM.
Another data set deals with BChE (Equus caballus, UniProt P81908). Nature of the data set: Kinetic study of BChE inhibition. In kind it is biochemical, horse. The following applies: 13s at 0, 5, 20, 40 µM; butyrylthiocholine iodide 187.5-3000 µM.

SMILES strings stand for the structures.

Sequence of BChE (P81908 whole entry): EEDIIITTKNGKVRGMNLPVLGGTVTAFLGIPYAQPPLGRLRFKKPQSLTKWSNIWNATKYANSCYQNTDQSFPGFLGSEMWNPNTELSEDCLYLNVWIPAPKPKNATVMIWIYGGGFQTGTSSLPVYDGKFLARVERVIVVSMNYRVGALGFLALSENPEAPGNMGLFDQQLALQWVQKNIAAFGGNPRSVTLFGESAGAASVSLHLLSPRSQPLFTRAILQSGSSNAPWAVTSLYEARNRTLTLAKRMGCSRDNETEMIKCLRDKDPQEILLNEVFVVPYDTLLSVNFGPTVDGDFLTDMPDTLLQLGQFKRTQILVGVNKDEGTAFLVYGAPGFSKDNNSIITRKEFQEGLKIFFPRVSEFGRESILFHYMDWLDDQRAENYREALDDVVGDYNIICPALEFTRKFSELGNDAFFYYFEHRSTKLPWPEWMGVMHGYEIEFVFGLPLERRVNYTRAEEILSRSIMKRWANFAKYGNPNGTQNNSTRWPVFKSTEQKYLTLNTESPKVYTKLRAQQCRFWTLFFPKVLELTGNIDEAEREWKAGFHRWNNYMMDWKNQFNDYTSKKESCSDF

On to `Cc1ccc(Cn2cc(COc3ccc(-c4nnc(-c5ccc([N+](=O)[O-])cc5)o4)cc3)nn2)cc1` [Compound 13s, 2-(4-((1-(4-Methylbenzyl)-1 H-1,2,3-triazol-4-yl)methoxy)phenyl)-5-(4-nitrophenyl)-1,3,4-oxadiazole], for which the toxicity entry in data set [1] was “no toxicity”. The “mechanism of BChE inhibition (Lineweaver-Burk)” value on BChE was “competitive inhibition pattern”.
